What all share (type): in vivo
Test [1] deals with Plutella xylostella. The experiment in a line: Soil irrigation test on Plutella xylostella. As to conditions: 144 h, 500 ppm solution, 10 ml soil irrigation of cabbage seedlings, leaves picked 5 days after, 3rd-instar larvae, 6 days after. How it is done:
The soil around the bases of cabbage seedlings (at the 2.5-leaf stage) planted in plastic cups was irrigated with 10 ml of the solutions. After the irrigation, the cabbage seedlings were placed in a greenhouse. 5 Days after the irrigation, leaves of cabbage were picked and placed in dishes. In each dish, five 3rd-instar larvae of Plutella xylostella were released, and the dishes were covered with lids and placed in an incubator at 25° C. 6 Days after, dead insects in the dishes were counted, and the mortality was calculated by using the same equation as in Test Example 1. The test was carried out in duplicate.

The test system of test [2] is Plutella xylostella. The experiment in a line: Insecticidal test on Plutella xylostella (cabbage leaves soaked). As to conditions: 144 h, 500 ppm solution, 3rd-instar larvae, 6 days after, 25° C. The protocol: Leaves of cabbage were soaked in the solutions for about 10 seconds. After the soaking, the leaves were dried in air and placed in dishes. In each dish, five 3rd-instar larvae of Plutella xylostella were released, and the dishes were covered with lids and placed in an incubator at 25° C. 6 Days after, dead insects in the dishes were counted, and the mortality was calculated by using the same equation as in Test Example 1. The test was carried out in duplicate.

The test system of test [3] is Spodoptera litura. Briefly: Insecticidal test on Spodoptera litura (cabbage leaves soaked). The settings on record: 144 h, 500 ppm solution, 3rd-instar larvae, 6 days after, 25° C. How it is done:
Leaves of cabbage were soaked in the solutions for about 10 seconds. After the soaking, the leaves were dried in air and placed in dishes. In each dish, five 3rd-instar larvae of Spodoptera litura were released, and the dishes were covered with lids and placed in an incubator at 25° C. 6 Days after, dead insects in the dishes were counted, and the mortality was calculated by using the same equation as in Test Example 1. The test was carried out in duplicate.

Test [4] concerns Ctenocephalides felis. Briefly: Test on the effect on Ctenocephalides felis (thin film in glass container). As to conditions: 96 h, application dose 10 μg/cm^2, adults, 4 days after release, 25° C. The protocol:
350 μl of the solutions were applied to the bottoms and the side walls of glass containers with an inner wall surface area of 35 cm^2, and acetone was volatilized to prepare thin films of the compounds on the inner walls of the glass containers. Since the inner wall surface area of each glass container was 35 cm^2, the application dose was 10 μg/cm^2.
To each glass container, five adults (male and female) of Ctenocephalides felis were released, and the containers were covered with lids and placed in an incubator at 25° C. 4 Days after the release of the fleas, dead fleas were counted, and the mortality was calculated by using the same equation as in Test Example 1.

The test system of test [5] is Myzus persicae. Briefly: Insecticidal test on Myzus persicae (cabbage leaf spray). The settings on record: 144 h, 500 ppm solution sprayed (2.5 mg/cm^2), apterous adults on cabbage leaves, 6 days after, 25° C. The protocol:
Wet absorbent cotton was laid on glass dishes having an inner diameter of 3 cm, and covered with leaves of cabbage cut into circles of the same diameter, and 4 apterous adults of Myzus persicae were released. […] The solutions were sprayed from a rotary spray tower (2.5 mg/cm^2), and the dishes were covered with lids and placed in an incubator at 25° C. 6 Days after, dead insects were counted, and the mortality was calculated by using the same equation as in Test Example 1. The test was carried out in duplicate.

Test [6] relates to Frankliniella occidentalis. The experiment in a line: Insecticidal activity on Frankliniella occidentalis (kidney bean leaf spray). As to conditions: 48 h, 500 ppm solution sprayed (2.5 mg/cm^2), larvae on kidney bean leaves, 2 days after. How it is done:
In styrol cups having an inner diameter of 7 cm, wet filter paper was laid, kidney bean leaves cut into a 3 cm square were laid on the paper, and each leaf was inoculated with 20 larvae of Frankliniella occidentalis. […] 2.5 ml of the solutions were sprayed from a rotary spray tower into the styrol cups (2.5 mg/cm^2).
2 Days after, dead insects were counted, and insect damage on kidney bean leaves was examined. The mortality was calculated by using the same equation as in Test Example 1.
The insect damage degree was evaluated as follows. 1: 0 to 20% insect damage, 2: 20 to 50% insect damage, 3: 50 to 70% insect damage, and 4: 70% or higher insect damge. The test was carried out in duplicate.

The test system of test [7] is Nilaparvata lugens. The experiment in a line: Insecticidal test on Nilaparvata lugens (rice sheaths soaked). The settings on record: 144 h, 500 ppm solution, 3rd-instar larvae, 6 days after, 25° C. The protocol:
Rice sheaths were soaked in the solutions for about 10 seconds. After the soaking, the rice sheaths were dried in air and put in test tubes. In each tube, five 3rd-instar larvae of Nilaparvata lugens were released, and the tubes were capped with sponge and placed in an incubator at 25° C. 6 Days after, dead insects in the test tubes were counted, and the mortality (%) (the number of dead insects÷the number of released insects×100) was calculated. The test was carried out in duplicate.

For test [8], the system named is Nilaparvata lugens. Briefly: Systemic insecticidal test on Nilaparvata lugens (rice seedling root dip). As to conditions: 20 ppm solution, rice seedling roots dipped 7 days, 3rd-instar larvae, 6 days after release, 25° C. The protocol: 7 Days after, the rice seedlings were picked and put in test tubes, and in each tube, five 3rd-instar larvae of Nilaparvata lugens were released, and the tubes were capped with sponge and placed in an incubator at 25° C. 6 Days after the release of the insects, dead insects were counted, and the mortality (%) (the number of dead insects÷the number of released insects×100) was calculated. The test was carried out in duplicate.

Structures are written as SMILES.

The pest or weed control is the degree to which the test organism was suppressed or injured, in per cent. Higher therefore signals a strong effect. The mortality is the share of the test organisms that died. Higher therefore signals fewer survivors.

Compound `CCS(=O)(=O)c1c(-n2cc3ncc(C(F)(F)F)cc3n2)nc2cc(C(F)(F)F)ccn12` [1-10-002a, 2-[3-(ethylsulfonyl)-7-(trifluoromethyl)imidazo[1,2-a]pyridin-2-yl]-6-(trifluoromethyl)-2H-pyrazolo[4,3-b]pyridine] gave a pest or weed control at 500 ppm in test [1] of at least 90%. The mortality at 500 ppm in test [2], in test [3] and in test [5] was at least 90% in each case. In test [4], this compound had a mortality at 10 µg/cm2 of at least 50%.
`CCS(=O)(=O)c1c(-c2cn3ncc(C(F)(F)F)cc3n2)nc2cc(C(F)(F)F)ccn12` [1-4-001a, 2-[3-(ethylsulfonyl)-7-(trifluoromethyl)imidazo[1,2-a]pyridin-2-yl]-7-(trifluoromethyl)imidazo[1,2-b]pyridazine] displayed a pest or weed control at 500 ppm in test [1] of at least 90%. For the same compound, the mortality at 500 ppm in test [2], in test [3] and in test [5] was at least 90% each time. Besides, in test [4], the mortality at 10 µg/cm2 is at least 50%.
For the compound `CCSc1c(-c2nc3cc(C(F)(F)F)cnc3n2C)n(C)c2ccc(C(F)(F)F)cc12` [3-1-001b, 2-[3-(ethylthio)-1-methyl-5-(trifluoromethyl)-1H-indol-2-yl]-3-methyl-6-(trifluoromethyl)-3H-imidazo[4,5-b]pyridine], the mortality at 500 ppm in test [2] is at least 90%; in test [6], at least 50%. Moreover, the mortality at 10 µg/cm2 in test [4] was at least 50%.
For the compound `CCS(=O)(=O)c1c(-c2nc3cc(C(F)(F)F)nc(C)c3n2C)nc2ccc(C(F)(F)F)cn12` [1-8-003a, 2-[3-(ethylsulfonyl)-6-(trifluoromethyl)imidazo[1,2-a]pyridin-2-yl]-3,4-dimethyl-6-(trifluoromethyl)-3H-imidazo[4,5-c]pyridine], the pest or weed control at 500 ppm in test [1] was at least 90%. In test [3], this compound came in with a mortality at 500 ppm of at least 90%. This compound yielded a mortality at 10 µg/cm2 in test [4] of at least 50%.
For `CCS(=O)(=O)c1c(-c2nc3cc(C(F)(F)F)cnc3n2C)nc2cnc(C(F)(F)F)cn12` [1-1-029a, 2-[3-(ethylsulfonyl)-6-(trifluoromethyl)imidazo[1,2-a]pyrazin-2-yl]-3-methyl-6-(trifluoromethyl)-3H-imidazo[4,5-b]pyridine], the pest or weed control at 500 ppm in test [1] is at least 90%. Besides, the mortality at 500 ppm in test [2] and in test [3] was at least 90% in each case. In test [4], this compound displayed a mortality at 10 µg/cm2 of at least 50%.
With `CCS(=O)(=O)c1c(-c2nc3cc([S+]([O-])C(F)(F)F)ccc3o2)nc2ccc(C(F)(F)F)cn12` (centres unmarked) [1-2-002a, 2-[3-(ethylsulfonyl)-6-(trifluoromethyl)imidazo[1,2-a]pyridin-2-yl]-5-[(trifluoromethyl)sulfinyl]benz[d]oxazole], the mortality at 500 ppm in test [2], in test [7], in test [3] and in test [5] was at least 90% in each case. In test [8], this compound registered a mortality at 20 ppm of at least 90%.
Consider `CCS(=O)(=O)c1c(-c2nc3cc(C(F)(F)F)cnc3n2C)n(C)c2ccc(C(F)(F)F)cc12` [3-1-001a, 2-[3-(ethylsulfonyl)-1-methyl-5-(trifluoromethyl)-1H-indol-2-yl]-3-methyl-6-(trifluoromethyl)-3H-imidazo[4,5-b]pyridine], for which the mortality at 500 ppm in test [2] was at least 90%; in test [3], at least 90%; in test [5], at least 90%; in test [6] it was at least 50%. In test [4], this compound yielded a mortality at 10 µg/cm2 of at least 50%.
As for `CCS(=O)(=O)c1c(-n2cc3cnc(C(F)(F)F)cc3n2)nc2cc(C(F)(F)F)ccn12` [1-11-001a, 2-[3-(ethylsulfonyl)-7-(trifluoromethyl)imidazo[1,2-a]pyridin-2-yl]-6-(trifluoromethyl)-2H-pyrazolo[4,3-c]pyridine], the pest or weed control at 500 ppm in test [1] was at least 90%. The mortality at 500 ppm in test [2], in test [7], in test [3] and in test [5] was at least 90% each time. In test [4], this compound gave a mortality at 10 µg/cm2 of at least 50%. The same compound showed a mortality at 20 ppm in test [8] of at least 90%.
With `CCSc1c(-c2nc3cc(C(F)(F)F)cnc3n2C)nc2cc(C(F)(F)F)ccn12` [1-1-002b, 2-[3-(ethylthio)-7-(trifluoromethyl)imidazo[1,2-a]pyridin-2-yl]-3-methyl-6-(trifluoromethyl)-3H-imidazo[4,5-b]pyridine], the mortality at 500 ppm was at least 90% in test [2], at least 90% in test [3], at least 90% in test [5] and at least 50% in test [6]. Also, in test [4], the mortality at 10 µg/cm2 was at least 50%.
As to `CCS(=O)(=O)c1c(-c2cn3c(C)nc(C(F)(F)C(F)(F)F)cc3n2)nc2ccc(C(F)(F)F)cn12` [1-3-007a, 2-[3-(ethylsulfonyl)-6-(trifluoromethyl)imidazo[1,2-a]pyridin-2-yl]-5-methyl-7-(perfluoroethyl)imidazo[1,2-c]pyrimidine], the mortality at 500 ppm in test [2], in test [7], in test [3] and in test [5] was at least 90% throughout. In addition, the mortality at 10 µg/cm2 in test [4] is at least 50%. Besides, the mortality at 20 ppm in test [8] is at least 90%.
In the case of `CCSc1c(-c2nc3cc(C(F)(F)F)cnc3n2C)nc2cc(C(F)(F)F)ncn12` [1-1-055b, 2-[3-(ethylthio)-7-(trifluoromethyl)imidazo[1,2-c]pyrimidin-2-yl]-3-methyl-6-(trifluoromethyl)-3H-imidazo[4,5-b]pyridine], in test [6], the mortality at 500 ppm was at least 50%.
Compound `CCSc1c(-c2nc3cc(C(F)(F)F)cnc3n2C)nc2ncc(C(F)(F)F)cn12` [1-1-054b, 2-[3-(ethylthio)-6-(trifluoromethyl)imidazo[1,2-a]pyrimidin-2-yl]-3-methyl-6-(trifluoromethyl)-3H-imidazo[4,5-b]pyridine] had a mortality at 10 µg/cm2 in test [4] of at least 50%. For the same compound, the mortality at 500 ppm in test [6] is at least 50%.
For the compound `CCS(=O)(=O)c1c(-c2nc3cc(C(F)(F)F)cnc3n2C)nc2sc(C(F)(F)F)nn12` [2-1-002a, 5-(ethylsulfonyl)-6-[3-methyl-6-(trifluoromethyl)-3H-imidazo[4,5-b]pyridin-2-yl]-2-(trifluoromethyl)imidazo[2,1-b][1,3,4]thiadiazole], the pest or weed control at 500 ppm in test [1] was at least 90%. Also, the mortality at 500 ppm was at least 90% in test [2], at least 90% in test [5] and at least 50% in test [6]. The compound also registered a mortality at 20 ppm in test [8] of at least 90%.
